Assay results taken from patent publication US4507487A, “Chemical compounds” (Bristol-Myers Company, priority 1983, dated 1985).
≈ marks a conversion by molar mass, not a printed value. Read-outs that look alike come from different tables or passages of the source.

Tests used:
[1] = test system: Penicillinsensitive S. aureus; test: MIC, two-fold serial agar dilution in Mueller-Hinton agar, group (G+)-Ia; format: cell-based; details: Staphylococcus aureus; (G+)-Ia, penicillin-sensitive S. aureus (5 strains); read-out: Geometric Mean of MIC
Description: (§1) In the primary evaluation of the compounds of this invention, the Minimum Inhibitory Concentrations (MIC's) of the compounds were determined by the two-fold serial agar dilution method in Mueller-Hinton agar against 32 strains of test organisms in six groups.

Ps. aeruginosa = test: MIC, two-fold serial agar dilution in Mueller-Hinton agar, group (G-)-III; format: cell-based; details: Pseudomonas aeruginosa, Ps. aeruginosa (6 strains), read-out: Geometric Mean of MIC
Description: as §1

[2] = test system: Cephalothinresistant E. coli and Kl. pneumoniae; test: MIC, two-fold serial agar dilution in Mueller-Hinton agar, group (G-)-Ib; format: cell-based; details: read-out: Geometric Mean of MIC
Description: as §1
(G-)Ib: Cephalothinresistant E. coli (3 strains) and Kl. pneumoniae (3

[3] = test system: M. morganii, Ent. cloacae and Ser. marcescens; test: MIC, two-fold serial agar dilution in Mueller-Hinton agar, group (G-)-II; format: cell-based; details: read-out: Geometric Mean of MIC
Description: as §1
(G-)II: M. morganii (1 strain), Ent. cloacae (2 strains) and Ser.

[4] = test system: Cephalothinsensitive E. coli, Kl. pneumoniae and Pr. mirabilis; test: MIC, two-fold serial agar dilution in Mueller-Hinton agar, group (G-)-Ia; format: cell-based; details: (G-)-Ia, cephalothin-sensitive E. coli (2), Kl. pneumoniae (1), Pr. mirabilis (2 strains); read-out: Geometric Mean of MIC
Description: as §1
(G-)Ia: Cephalothinsensitive E. coli (2 strains), Kl. pneumoniae (1
strain) and Pr. mirabilis (2 strains)

[5] = test system: Penicillinresistant S. aureus; test: MIC, two-fold serial agar dilution in Mueller-Hinton agar, group (G+)-Ib; format: cell-based; details: Staphylococcus aureus, read-out: Geometric Mean of MIC
Description: as §1
(G+)Ib: Penicillinresistant S. aureus (5 strains)

[6] = Mouse blood levels after single intramuscular injection; format: in vivo, mice; details: for concentration at 10 min / concentration at 20 min / concentration at 0.5 h / concentration at 40 min / concentration at 50 min / concentration at 1 h / concentration at 1.5 h / concentration at 2 h: read-out: Mouse Blood Level; for concentration at 0.5 h: 30 minutes; for concentration at 1 h: 60 minutes; for concentration at 1.5 h: 90 minutes; for concentration at 2 h: 120 minutes
Description: The absorption of some of the preferred compounds were determined in mice following a single intramuscular injection of the test compound (dissolved in 0.1M phosphate buffer; pH 7) at a dosage of 10, 20 or 40 mg/kg. Blood samples were collected from the orbital sinuses into heparinized capillary tubes and assayed in Nutrient Agar (pH 6.6) using E. coli Ess-22-31 as the test organism. The blood levels at various time intervals, the half-life values (t1/2) and the areas under the curve (AUC) are shown in Table 3.

E. coli Juhl = test: MIC against specific test organism; format: cell-based; details: Escherichia coli, read-out: Minimum Inhibitory Concentration
Description: as §1
(§2) The test method was as described for Table 1.

Ps. aeruginosa A20717 = test: MIC against specific test organism; format: cell-based; details: Pseudomonas aeruginosa, read-out: Minimum Inhibitory Concentration
Description: as §1, §2

Ps. aeruginosa A15150 = test: MIC against specific test organism; format: cell-based; details: Pseudomonas aeruginosa, read-out: Minimum Inhibitory Concentration
Description: as §1, §2

Ps. aeruginosa A9843 = test: MIC against specific test organism; format: cell-based; details: Pseudomonas aeruginosa, read-out: Minimum Inhibitory Concentration
Description: as §1, §2

K. pneumoniae A9867 = test: MIC against specific test organism; format: cell-based; details: Klebsiella pneumoniae; K. pneumoniae A9867, cephalothin-resistant strain; read-out: Minimum Inhibitory Concentration
Description: as §1, §2

Pr. mirabilis A9554 = test: MIC against specific test organism; format: cell-based; details: Proteus mirabilis, read-out: Minimum Inhibitory Concentration
Description: as §1, §2

M. morganii A9553 = test: MIC against specific test organism; format: cell-based; details: Morganella morganii, read-out: Minimum Inhibitory Concentration
Description: as §1, §2

K. pneumoniae D11 = test: MIC against specific test organism; format: cell-based; details: Klebsiella pneumoniae, read-out: Minimum Inhibitory Concentration
Description: as §1, §2

Ser. marcescens A20019 = test: MIC against specific test organism; format: cell-based; details: Serratia marcescens, read-out: Minimum Inhibitory Concentration
Description: as §1, §2

S. aureus Smith = test: MIC against specific test organism; format: cell-based; details: Staphylococcus aureus, read-out: Minimum Inhibitory Concentration
Description: as §1, §2

S. aureus BX-1633-2 = test: MIC against specific test organism; format: cell-based; details: Staphylococcus aureus, BX16332; S. aureus BX-1633-2, penicillin-resistant strain; read-out: Minimum Inhibitory Concentration
Description: as §1, §2

Ent. cloacae A9656 = test: MIC against specific test organism; format: cell-based; details: Enterobacter cloacae, read-out: Minimum Inhibitory Concentration
Description: as §1, §2

E. coli A15164 = test: MIC against specific test organism; format: cell-based; details: Escherichia coli; E. coli A15164, cephalothin-resistant strain; read-out: Minimum Inhibitory Concentration
Description: as §1, §2

In the case of `CO/N=C(\C(=O)NC1C(=O)N2C(C(=O)[O-])=C(C[n+]3ccsc3SC)CS[C@H]12)c1csc(N)n1` (some centres unmarked) [Example 3, 7-[(Z)-2-(2-Aminothiazol-4-yl)-2-(methoxyimino)acetamido]-3-(2-methylthiothiazolio)methyl-3-cephem-4-carboxylate], the MIC [1] is reported as 0.23 µg/mL (≈ 0.437 µM), the MIC (Ps. aeruginosa) is reported as 2 µg/mL (≈ 3.8 µM) and the MIC [2] is reported as 0.15 µg/mL (≈ 0.285 µM). For the same molecule, the MIC [3] was 0.14 µg/mL (≈ 0.266 µM), the MIC [4] was 0.022 µg/mL (≈ 0.0418 µM) and the MIC [5] was 0.8 µg/mL (≈ 1.52 µM). It also gave an AUC ([6]; 10 mg/kg im) of 18000 ng·h/mL, a half-life ([6]; 10 mg/kg im) of 47 min and a concentration at 10 min ([6]; 10 mg/kg im) of 14000 ng/mL. The concentration at 20 min ([6]; 10 mg/kg im) was 14000 ng/mL, the concentration at 0.5 h ([6]; 10 mg/kg im) was 12000 ng/mL and the concentration at 40 min ([6]; 10 mg/kg im) was 10000 ng/mL. For the same molecule, the concentration at 50 min ([6]; 10 mg/kg im) was 9800 ng/mL, the concentration at 1 h ([6]; 10 mg/kg im) was 6800 ng/mL and the concentration at 1.5 h ([6]; 10 mg/kg im) was 5200 ng/mL. It also gave a concentration at 2 h ([6]; 10 mg/kg im) of 3200 ng/mL, an AUC ([6]; 20 mg/kg im) of 29000 ng·h/mL and a half-life ([6]; 20 mg/kg im) of 46 min. It also gave a concentration at 10 min ([6]; 20 mg/kg im) of 24000 ng/mL, a concentration at 20 min ([6]; 20 mg/kg im) of 22000 ng/mL and a concentration at 0.5 h ([6]; 20 mg/kg im) of 20000 ng/mL. For the same molecule, the concentration at 40 min ([6]; 20 mg/kg im) was 17000 ng/mL, the concentration at 50 min ([6]; 20 mg/kg im) was 13000 ng/mL and the concentration at 1 h ([6]; 20 mg/kg im) was 11000 ng/mL. The concentration at 1.5 h ([6]; 20 mg/kg im) was 9500 ng/mL, the concentration at 2 h ([6]; 20 mg/kg im) was 4500 ng/mL and the AUC ([6]; 40 mg/kg im) was 60000 ng·h/mL. It also gave a half-life ([6]; 40 mg/kg im) of 54 min, a concentration at 10 min ([6]; 40 mg/kg im) of 48000 ng/mL and a concentration at 20 min ([6]; 40 mg/kg im) of 36000 ng/mL. For the same molecule, the concentration at 0.5 h ([6]; 40 mg/kg im) was 32000 ng/mL, the concentration at 40 min ([6]; 40 mg/kg im) was 32000 ng/mL and the concentration at 50 min ([6]; 40 mg/kg im) was 24000 ng/mL. The concentration at 1 h ([6]; 40 mg/kg im) was 20000 ng/mL, the concentration at 1.5 h ([6]; 40 mg/kg im) was 15000 ng/mL and the concentration at 2 h ([6]; 40 mg/kg im) was 10000 ng/mL. The MIC (E. coli Juhl) was 0.025 µg/mL (≈ 0.0475 µM), the MIC (Ps. aeruginosa A20717) was 6.3 µg/mL (≈ 12 µM) and the MIC (Ps. aeruginosa A15150) was 0.8 µg/mL (≈ 1.52 µM). The MIC (Ps. aeruginosa A9843) was 3.1 µg/mL (≈ 5.89 µM), the MIC (K. pneumoniae A9867) was 0.8 µg/mL (≈ 1.52 µM) and the MIC (Pr. mirabilis A9554) was 0.05 µg/mL (≈ 0.0949 µM). It also gave an MIC (M. morganii A9553) of 0.2 µg/mL (≈ 0.38 µM), an MIC (K. pneumoniae D11) of 0.025 µg/mL (≈ 0.0475 µM) and an MIC (Ser. marcescens A20019) of 0.025 µg/mL (≈ 0.0475 µM). For the same molecule, the MIC (S. aureus Smith) was 0.4 µg/mL (≈ 0.76 µM), the MIC (S. aureus BX-1633-2) was 0.8 µg/mL (≈ 1.52 µM) and the MIC (Ent. cloacae A9656) was 0.05 µg/mL (≈ 0.0949 µM). The MIC (E. coli A15164) was 0.1 µg/mL (≈ 0.19 µM).

`CCO/N=C(\C(=O)NC1C(=O)N2C(C(=O)[O-])=C(C[n+]3ccsc3SC)CS[C@H]12)c1csc(N)n1` (some centres unmarked) [Example 4, 7-[(Z)-2-(2-Aminothiazol-4-yl)-2-(ethoxyimino)acetamido]-3-(2-methylthiothiazolio)methyl-3-cephem-4-carboxylate] showed an MIC [1] of 0.35 µg/mL (≈ 0.647 µM), an MIC (Ps. aeruginosa) of 5.6 µg/mL (≈ 10.4 µM) and an MIC [2] of 0.32 µg/mL (≈ 0.592 µM). For the same molecule, the MIC [3] was 0.69 µg/mL (≈ 1.28 µM), the MIC [4] was 0.076 µg/mL (≈ 0.141 µM) and the MIC [5] was 0.61 µg/mL (≈ 1.13 µM). The MIC (E. coli Juhl) was 0.1 µg/mL (≈ 0.185 µM), the MIC (Ps. aeruginosa A20717) was 12.5 µg/mL (≈ 23.1 µM) and the MIC (Ps. aeruginosa A15150) was 3.1 µg/mL (≈ 5.73 µM). The MIC (Ps. aeruginosa A9843) was 12.5 µg/mL (≈ 23.1 µM), the MIC (K. pneumoniae A9867) was 1.6 µg/mL (≈ 2.96 µM) and the MIC (Pr. mirabilis A9554) was 0.2 µg/mL (≈ 0.37 µM). For the same molecule, the MIC (M. morganii A9553) was 0.4 µg/mL (≈ 0.74 µM), the MIC (K. pneumoniae D11) was 0.1 µg/mL (≈ 0.185 µM) and the MIC (Ser. marcescens A20019) was 0.1 µg/mL (≈ 0.185 µM). For the same molecule, the MIC (S. aureus Smith) was 0.4 µg/mL (≈ 0.74 µM), the MIC (S. aureus BX-1633-2) was 0.4 µg/mL (≈ 0.74 µM) and the MIC (Ent. cloacae A9656) was 0.2 µg/mL (≈ 0.37 µM). The MIC (E. coli A15164) was 0.2 µg/mL (≈ 0.37 µM).
